# Data taken from patent publication US6010854A, “Autoantibodies to neurotransmitter receptors” (University of Utah Research Foundation, priority 1997, dated 2000).
# Experiments:
# Assay type in all cases: cell-based
# [1] = tested on: anti-GluR3 antibody-evoked currents, mouse cortical neurons in culture; assay: Block of anti-GluR3 antibody-evoked whole cell currents; details: for blockage of anti-GluR3 antibody-evoked currents: CNQX 40 μM, MK-801 10 μM, peptides 0.5 mg/ml incubated with serum or IgG for 15 minutes
# [2] = tested on: glutamate receptors, fetal mouse cortical neurons in culture; assay: Whole cell currents evoked in voltage-clamped neurons in culture; details: 100 μM NMDA with 1 μM glycine, -75 mV, 1 mM MgCl2
# Protocol: To examine functional consequences of antibody binding to glutamate receptors, electrophysiological methods were used to record whole cell currents from mouse cortical neurons in culture. Neuronal cultures from fetal (E14-16) mouse cortical and hippocampal structures were prepared on poly-L-lysine-coated 35 mm "FALCON" dishes according to G. Skeen et al., 44 Molec. Pharmacol. 443 (1993), hereby incorporated by reference. Cultures were fed every other day using a growth medium consisting of DMEM, 10% horse serum, 30 mM glucose, and 0.5 mM glutamine. Arabinosylcytosine (ARA-C) was added for 1 day during the first week in culture to suppress growth of non-neuronal cells. Electrophysiological experiments were performed on 2-5 week old cultures at room temperature. External solution consisted of 145 mM NaCl, 1.5 mM KCl, 1 mM CaCl2, 1 mM MgCl2, 10 mM Na-HEPES, 10 mM glucose, 30 mM sucrose at pH 7.4, 320 mOsm. Internal solution consisted of 153 mM CsCl, 10 mM Cs-HEPES, 4 mM MgCl2, 5 mM EGTA at pH 7.35, 300 mOsm. Solutions were designed for measurement of predominantly sodium inward currents and to block NMDA receptor currents when neurons are voltage clamped at -75 mV. […]
# Currently, the composition of native GluR's and GABAR's is unknown and the potential diversity of native receptors is immense. […] Five cells are recorded for each paradigm and antibody. […]
# [3] = tested on: currents evoked by serum from a Rasmussen's encephalitis patient, fetal mouse cortical neurons; assay: Block of whole cell currents evoked by serum from a Rasmussen's encephalitis patient
# Protocol: To examine functional consequences of antibody binding to glutamate receptors, electrophysiological methods were used to record whole cell currents from mouse cortical neurons in culture. Neuronal cultures from fetal (E14-16) mouse cortical and hippocampal structures were prepared on poly-L-lysine-coated 35 mm "FALCON" dishes according to G. Skeen et al., 44 Molec. Pharmacol. 443 (1993), hereby incorporated by reference. Cultures were fed every other day using a growth medium consisting of DMEM, 10% horse serum, 30 mM glucose, and 0.5 mM glutamine. Arabinosylcytosine (ARA-C) was added for 1 day during the first week in culture to suppress growth of non-neuronal cells. Electrophysiological experiments were performed on 2-5 week old cultures at room temperature. External solution consisted of 145 mM NaCl, 1.5 mM KCl, 1 mM CaCl2, 1 mM MgCl2, 10 mM Na-HEPES, 10 mM glucose, 30 mM sucrose at pH 7.4, 320 mOsm. Internal solution consisted of 153 mM CsCl, 10 mM Cs-HEPES, 4 mM MgCl2, 5 mM EGTA at pH 7.35, 300 mOsm. Solutions were designed for measurement of predominantly sodium inward currents and to block NMDA receptor currents when neurons are voltage clamped at -75 mV. […] To block other currents, 0.2-1 μM tetrodotoxin (TTX), 10 μM picrotoxin, 10 nM strychnine were added to the external solution. External solution was perfused continuously at about 2 ml/min. […]
Compound,"Antibody-evoked currents reduced to % of control ([1]; 40 μM, rabbit serum 1:8, 6 cells)",blockage of anti-GluR3 antibody-evoked currents [1],current evoked by NMDA [2],blockage of currents evoked by serum from a Rasmussen's encephalitis patient [3]
"N#Cc1cc2c(cc1[N+](=O)[O-])=NC(=O)C(=O)N=2 [CNQX, 6-cyano-7-nitro-quinoxaline-2,3-dione, reference compound]",4±20 % of control,"rapid, reversible, and voltage independent",,
"C[C@]12N[C@H](Cc3ccccc31)c1ccccc12 [MK-801, reference compound]",,had no effect,,
"CN[C@H](CC(=O)O)C(=O)O [NMDA, N-methyl-D-aspartate]",,,No current was evoked,
"GluR3A: synthetic peptide, amino acids 245-274 of GluR3 (SEQ ID NO:1) (NNENPMVQQFIQRWVRLDEREFPEAKNAP)",,did not block antibody-evoked currents,,does not
